species on record: Mus musculus; assay: Blood schizonticidal activity in mice model with Plasmodium berghei k-173 infection was determined; type: functional

Row | Compound | ED90
1 | C[C@@H]1CCC2[C@]34OOC(C)(CCC13)O[C@H]4O[C@]2(C)CO (single isomer, unassigned) | 25 mg/kg
2 | CC1OC2OC3(C)CCC4[C@H](C)CCC([C@H]1C)[C@@]24OO3.O (single isomer, unassigned) | 10 mg/kg
3 | C[C@@H]1CCC2[C@@H](C)[C@H](OC[C@@]3(C)OC4OC5(C)CCC6[C@H](C)CCC3[C@@]46OO5)OC3OC4(C)CCC1[C@]32OO4 (single isomer, unassigned) | 2.5 mg/kg
4 | C[C@@H]1CCC2[C@@H](C)[C@@H](OC[C@]3(C)OC4OC5(C)CCC6[C@@H](C)CCC3[C@]46OO5)OC3OC4(C)CCC1[C@]32OO4 (single isomer, unassigned) | 1.25 mg/kg
5 | C[C@@H]1CCC2[C@]34OOC(C)(CCC13)O[C@H]4O[C@]2(C)C=O (single isomer, unassigned) | 25 mg/kg
6 | CCO[C@H]1O[C@@H]2O[C@@]3(C)CC[C@H]4[C@H](C)CC[C@@H]([C@H]1C)[C@@]24OO3 [ARTEMOTIL] | 1.25 mg/kg
